According to PMC6135860 (Neuropsychopharmacology, 2018):
Like-named read-outs stand apart in the source and are kept apart here.

Tests used:
[1] = target: PDE4 binding sites in wild-type mouse brain membranes; assay: [3H]-rolipram radioligand binding to brain membranes; settings: for Ki: wild-type
Experimental: (§1) Mice were killed by decapitation, and the brains were immediately dissected on ice and homogenized in binding buffer using a Polytron homogenizer (Brinkman Instruments, Westbury, NY). The membrane fraction of the homogenate was obtained by centrifugation at 15,000 × g for 15 min, and resuspension of the pellet in the binding buffer.
(§2) Mice were killed by decapitation, and the brains were immediately dissected on ice and homogenized in binding buffer (50 mM Tris-HCl, 5 mM MgCl2, pH 7.5) using a Polytron homogenizer (Brinkman Instruments, Westbury, NY). The membrane fraction of the homogenate was obtained by centrifugation at 15,000 g for 15 min, and resuspension of the pellet in the binding buffer^29.
(§3) At the end of the incubation, reactions were stopped by adding 5 ml of the ice-cold binding buffer and rapid vacuum filtration through glass fiber filters that had been soaked in 0.3% polyethyleneimine. The filters were then washed twice with 5 ml of the ice-cold binding buffer, and discs of filter paper were collected for measurement of radioactivity by liquid scintillation counting.

[2] = target: PDE4 binding sites in humanized PDE4D mouse brain membranes; assay: as above; settings: for Ki: hPDE4D
Experimental: as §1, §2, §3

wild-type mice [3] = assay: Y-maze spontaneous alternation test; type: in vivo, mouse
Experimental: (§4) The test consists of a single 5 min trial, in which the mouse was allowed to explore all three arms of the Y-maze [31]. Spontaneous alternation (%) was defined as consecutive entries in three different arms, divided by the number of possible alternations (total arm entries minus 2).
(§5) Y-maze spontaneous alternation test. The Y-maze apparatus made of matt blue Plexiglas had three identical arms (L 40 cm, W 5 cm, H 15 cm) placed at 120° from each other. The test consisted of a single 5 min trial, in which the mouse was allowed to explore all three arms of the Y-maze. The start arm was varied between animals to avoid placement bias. Spontaneous Alternation (%) was defined as consecutive entries in 3 different arms, divided by the number of possible alternations (total arm entries minus 2). Mice with less than 8 arm entries during the 5-min trial were excluded from the analysis.

humanized PDE4D mice [4] = assay: Y-maze spontaneous alternation test; type: in vivo, mouse
Experimental: as §4, §5

wild-type mice [5] = assay: Novel object recognition, 24 h inter-trial interval; type: in vivo, mouse
Experimental: (§6) The novel object recognition test was performed as described elsewhere [32, 33]. Briefly, the task procedure consists of three phases: habituation phase on day 1 for 10 min, training (T1) phase on day 2 for 5 min, and testing (T2) phase on day 3 for 5 min. The duration each animal spent exploring the objects was recorded. Time spent exploring the identical objects in T1 was recorded as a1 and a2; time spent exploring the familiar and the novel objects in T2 was recorded as “a” and “b”, respectively. The following variables were calculated: e1 = a1 + a2, e2 = a + b, the relative discrimination index d2 = (b–a)/e2.
Novel object recognition. Mice were handled for 3-5 min for 5 days in a row. The novel object recognition test was performed in a Plexiglas open field box (L30 cm, W50 cm, H40 cm) as described elsewhere^64,65. Briefly, the task procedure consists of three phases: habituation, training (T1), and testing (T2). […] The duration each animal spent exploring the objects was recorded. Time spent exploring the identical objects in T1 was recorded as a1 and a2; time spent exploring the familiar and the novel objects in T2 was recorded as ‘a’ and ‘b’, respectively. The following variables were calculated: e1 = a1 + a2, e2 = a + b, the relative discrimination index d2 = (b – a)/e2.

humanized PDE4D mice [6] = assay: as above; type: in vivo, mouse
Experimental: as §6
Novel object recognition. Mice were handled for 3-5 min for 5 days in a row. The novel object recognition test was performed in a Plexiglas open field box (L30 cm, W50 cm, H40 cm) as described elsewhere^64,65. Briefly, the task procedure consists of three phases: habituation, training (T1), and testing (T2). In the habituation phase (day 1), each animal is allowed to freely explore the apparatus for 10 min; then the animal is returned to its home cage. During the training phase (day 2), a single animal is placed in the center of the open field containing two identical objects located on the diagonal of the field, and allowed to explore for 5 min. After a retention interval after T1 of 24 h (long-term recall) or 1 h (scopolamine-impairment model), the animal was subjected to the T2 testing phase for 5 min, during which one familiar object and one novel object were presented. The arena and objects were thoroughly wiped with 70% ethanol after each trial to avoid the presence of any olfactory cues. The animals were considered to be exploring the object when directing their nose to the object at a distance of no more than 2 cm and/or touching or sniffing the object. The duration each animal spent exploring the objects was recorded. Time spent exploring the identical objects in T1 was recorded as a1 and a2; time spent exploring the familiar and the novel objects in T2 was recorded as ‘a’ and ‘b’, respectively. The following variables were calculated: e1 = a1 + a2, e2 = a + b, the relative discrimination index d2 = (b – a)/e2.

humanized PDE4D mice [7] = settings: 1 mg/kg IP, hPDE4D mice
wild-type mice [8] = assay: Ketamine/xylazine anesthesia duration (surrogate of emesis); settings: 1 mg/kg IP
humanized PDE4D mice [9] = assay: Scopolamine-induced memory impairment in novel object recognition, 1 h inter-trial interval; type: in vivo, mouse; settings: scopolamine 0.1 mg/kg IP 30 min prior to training
Experimental: The novel object recognition test was performed as described elsewhere. […] The duration each animal spent exploring the objects was recorded. Time spent exploring the identical objects in T1 was recorded as a1 and a2; time spent exploring the familiar and the novel objects in T2 was recorded as “a” and “b”, respectively. The following variables were calculated: e1 = a1 + a2, e2 = a + b, the relative discrimination index d2 = (b–a)/e2.
For the scopolamine-induced memory impairment models, a single dose of scopolamine (0.1 mg/kg, IP) was administered 30 min before the training session of the NOR. Animals treated with H-89 or vehicle were implanted with 26-gauge guide cannula unilaterally (AP −0.2 mm from Bregma, ML +1 mm from the midline, DV−2mm from skull surface) and rested for a week before any tests.
Novel object recognition. Mice were handled for 3-5 min for 5 days in a row. The novel object recognition test was performed in a Plexiglas open field box (L30 cm, W50 cm, H40 cm) as described elsewhere^64,65. Briefly, the task procedure consists of three phases: habituation, training (T1), and testing (T2). In the habituation phase (day 1), each animal is allowed to freely explore the apparatus for 10 min; then the animal is returned to its home cage. During the training phase (day 2), a single animal is placed in the center of the open field containing two identical objects located on the diagonal of the field, and allowed to explore for 5 min. After a retention interval after T1 of 24 h (long-term recall) or 1 h (scopolamine-impairment model), the animal was subjected to the T2 testing phase for 5 min, during which one familiar object and one novel object were presented. […] The duration each animal spent exploring the objects was recorded. Time spent exploring the identical objects in T1 was recorded as a1 and a2; time spent exploring the familiar and the novel objects in T2 was recorded as ‘a’ and ‘b’, respectively. The following variables were calculated: e1 = a1 + a2, e2 = a + b, the relative discrimination index d2 = (b – a)/e2.

[10] = inhibition of 2 nM [3H]-rolipram binding, read-out: One-site Ki
[11] = inhibition of [3H]-rolipram binding, read-out: Two-site Ki1
[12] = inhibition of [3H]-rolipram binding, read-out: Two-site Ki2
[13] = H-89 1 µg i.c.v. followed by BPN14770 0.03 mg/kg PO, hPDE4D mice

`COc1ccc(C2CNC(=O)C2)cc1OC1CCCC1` (centres unmarked) [Rolipram] showed a Ki [1, 10] of 1.99 ± 0.11 nM, a Ki [1, 11] of 0.75 ± 0.33 nM and a Ki [1, 12] of 34.1 ± 26.8 nM. It also gave a Ki [2, 10] of 1.66 ± 0.07 nM, a Ki [2, 11] of 0.39 ± 0.07 nM and a Ki [2, 12] of 6.1 ± 0.79 nM. The “MED in Y-maze” value (wild-type mice [3]) was 0.1 mg/kg IP, the “MED in Y-maze” value (humanized PDE4D mice [4]; humanized PDE4D mice) was 0.1 mg/kg IP and the “MED in NOR” value (wild-type mice [5]) was 0.1 mg/kg IP. The “MED in NOR” value (humanized PDE4D mice [6]; humanized PDE4D mice, 24 h inter-trial interval) was 0.1 mg/kg IP, the “effect on ketamine/xylazine anesthesia duration” value (humanized PDE4D mice [7]) was “significantly reduced the anesthesia duration” and the “effect on ketamine/xylazine anesthesia duration” value (wild-type mice [8]) was “significantly reduced the anesthesia duration”.

For `CN1[C@@H]2C[C@@H](OC(=O)[C@H](CO)c3ccccc3)C[C@H]1[C@@H]1O[C@@H]12` [scopolamine, reference compound], the “effect on short-term memory in NOR” value (humanized PDE4D mice [9]) was “abolished short-term memory formation”.

For `O=S(=O)(NCCNC/C=C/c1ccc(Br)cc1)c1cccc2cnccc12` [H-89, reference compound], the “effect on memory benefit of BPN14770 in Y-maze” value (humanized PDE4D mice [4]; [13]) was “significantly antagonized the effect of BPN14770 on memory” and the “effect on memory benefit of BPN14770 in NOR” value (humanized PDE4D mice [6]; [13]) was “significantly antagonized the effect of BPN14770 on memory”.

`COc1ccc(C2CNC(=O)C2)cc1OC1CCCC1` (centres unmarked) [[^3H]-rolipram] showed a Kd ([1]; wild-type mouse brain membranes, read-out: Kd of [3H]-rolipram saturation binding) of 3.84 nM and a Kd ([2]; humanized PDE4D mouse brain membranes, read-out: Kd of [3H]-rolipram saturation binding) of 3.72 nM.
